What all share (experiment): Growth inhibition GI50 in vitro (CCK8/MTT, 72 h)
The subject of experiment [1] is SK-BR-3 (Her2 amp). It is filed as cell-based, human. The conditions noted are these: Homo sapiens.
The test system of experiment [2] is H1299 (EGFR wt, Nras Q61K). It is filed as cell-based, human. To be noted: Homo sapiens, NCI-H1299.
The subject of experiment [3] is A431 (EGFR WT, amplification and high expression). Type of experiment: cell-based, human. The conditions noted are these: Homo sapiens, A-431.
The subject of experiment [4] is H460 (EGFR wt, Kras G61H). It is filed as cell-based, human. To be noted: Homo sapiens, NCI-H460.
The subject of experiment [5] is A549 (EGFR WT). It is filed as cell-based, human. The conditions noted are these: Homo sapiens.
Experiment [6] concerns AU565 (Her2 amp). It is filed as cell-based, human. The conditions noted are these: Homo sapiens.
The subject of experiment [7] is H1975 (EGFR L858R/T790M). Type of experiment: cell-based, human. The conditions noted are these: Homo sapiens, NCI-H1975.
For experiment [8], the system named is HCC827 (EGFR dE746-A750). It is filed as cell-based, human. To be noted: Homo sapiens.
In experiment [9] the test system is PC-9 (EGFR dE746-A750). Type of experiment: cell-based, human. To be noted: Homo sapiens.
The test system of experiment [10] is PC-9ER (EGFR delE746-A750/T790M). Type of experiment: cell-based, human. The conditions noted are these: Homo sapiens, PC-9/ER; EGFR mutant cell line; range of GI50; read-out: GI50 PC9ER.
In experiment [11] the test system is N87 (HER2 Amp). Type of experiment: cell-based, human. To be noted: Homo sapiens.
Experiment [12] relates to H292 (EGFR WT). It is filed as cell-based. To be noted: Homo sapiens, NCI-H292. From the text: EGFR wild type cell lines: human epidermal cancer cell line A431 (EGFR WT, amplification and high expression, from Shanghai Cell Bank of Chinese Academy of Sciences and ATCC), NSCLC cell lines NCI-H460 (EGFR WT, Kras G61H and PI3KCA E545K mutants, ATCC) and NCI-H1299 (EGFR WT, ATCC), melanoma cell line A375 (EGFR WT and BRAF V600E mutant, from Shanghai Cell Bank of Chinese Academy of Sciences, ATCC), human lung cancer cell line NCI-H292 (EGFR WT, from human lung mucoepidermoid carcinoma/lymphatic metastasis, purchased from Shanghai Cell Bank of Chinese Academy of Sciences) were cultured with 1×RPMI1640 complete medium which was supplement with 10% FBS. NSCLC cell line A549 (EGFR WT and Kras G12S mutant, from Shanghai Cell Bank of Chinese Academy of Sciences) was cultured with 1×Ham'S F12K complete medium which was supplement with 10% FBS, 1% double-antibiotics and 2 mM glutamine.
(§1) The suspension cells were collected by centrifugation. The supernatant was discard and the cell pellet was resuspended and counted. Different cell concentrations (5˜10×10^4 cells/mL) were prepared according to the growth cycle of each cell line and then seeded on a 96-well plate (Corning), 100 μL/well. The cells were incubated over night at 37° C., 5% CO2. The compounds were added to the cells on the second day with 2 wells in parallel. The final concentration of organic solvent shall not exceed 1%. The cells were continually incubated for 72 h, and then subjected to MTT assay.
(§2) The present compounds and the reference compounds were dissolved with DMSO (Sigma), respectively. […] The storage concentration of compounds was 10 mM and kept at −20° C. They were diluted by 2 times or 10 times with serial dilution before using.
(§3) Dojindo CCK8 reagent kit was used as MTT assay. […] FC meter was used as microplate reader.
(§4) Adherent cell culture medium was discard and immediately replaced with fresh prepared medium which contains 10% CCK8 reagent (100 μL/well). For the suspension cells, CCK8 was directly added to 10% of the final concentration. The cells were continually incubated for 1˜4 h. When the color of control wells turned to dark yellow, the absorption value was measured at OD450 nm. The cell growth rate was calculated according to the following formula: cell growth rate (%)=100*(T−T0)/(C−T0), T=optical density of drug treatment cell well—optical density of blank control well; T0=optical density of cell well before drug treatment—optical density of blank control well; C=optical density of cell well of solvent control group—optical density of blank control well. […] The experiment was independently repeated 1˜3 times, and subject to biological statistical analysis.

In experiment [13] the test system is Calu-3 (Her2 amp). Type of experiment: cell-based. To be noted: Homo sapiens, Calu-3; Table 16; 1000 nM to 0.03 nM serial dilution; read-out: GI50 Calu3 (HER2 amp). The method, then:
Human lung adenocarcinoma cell line Calu-3 (ATCC) was cultured with 1×MEM complete medium (10% FBS, 1% double-antibiotics, 1% NEAA (Gibco), 2 mM glutamine and 1 mM of sodium pyruvate). Human breast cancer cell line SK-BR-3 was cultured with McCOY'S5A complete medium (10% FBS). Human colon cancer cell line SNU1040 (HER2 V777M positive) (ATCC) and human bronchoalveolar adenocarcinoma cell line NCI-H1781 (expressing HER2 exon 20 G776VC mutation) (ATCC) were cultured with 1×RPMI1640 complete medium (10% FBS), respectively.
as §1, §2, §3, §4

Where [14] appears, read: SK-BR-3, HER2 positive cell line, range of GI50, read-out: GI50 SK-BR-3.
[15] abbreviates: EGFR wild type cell line, range of GI50, read-out: GI50 H1299.
[16] abbreviates: EGFR wild type cell line, range of GI50, read-out: GI50 A431.
The mark [17] stands for this setting: EGFR wild type cell line, range of GI50, read-out: GI50 H460.
Setting [18] is: A549, EGFR wild type cell line, range of GI50, read-out: GI50 A549.
Setting [19] is: AU565, HER2 positive cell line, range of GI50, read-out: GI50 AU-565.
[20] abbreviates: EGFR mutant cell line, range of GI50, read-out: GI50 H1975.
Setting [21] is: HCC827, EGFR mutant cell line, range of GI50, read-out: GI50 HCC827.
[22] abbreviates: EGFR mutant cell line, range of GI50, read-out: GI50 PC-9.
[23] abbreviates: HER2 positive cell line, range of GI50, read-out: GI50 N87.
The mark [24] stands for this setting: Table 15, 1000 nM to 0.03 nM serial dilution, read-out: GI50 H292 (EGFR WT).
[25] abbreviates: A549, Table 13, 72 h, read-out: Range of GI50 A549 (EGFR WT).
Setting [26] is: A549, Table 15, 1000 nM to 0.03 nM serial dilution, read-out: GI50 A549 (EGFR WT).
[27] abbreviates: Table 13, 72 h, read-out: Range of GI50 H1975 (EGFR L858R/T790M).
The mark [28] stands for this setting: Table 15, 1000 nM to 0.03 nM serial dilution, read-out: GI50 H1975 (EGFR L858R/T790M).
The mark [29] stands for this setting: Table 13, 72 h, read-out: Range of GI50 PC-9 (EGFR dE746-A750).
Where [30] appears, read: Table 15, 1000 nM to 0.03 nM serial dilution, read-out: GI50 PC-9 (EGFR dE746-A750).
[31] abbreviates: Table 13, 72 h, read-out: Range of GI50 N87 (HER2 Amp).
Setting [32] is: Table 16, 1000 nM to 0.03 nM serial dilution, read-out: GI50 N87 (HER2 amp).

Like-named read-outs stand apart in the source and are kept apart here.

Turning to `C=CC(=O)Nc1cc(Nc2nccc(-n3ccc4ccc(F)cc43)n2)c(OC)cc1N(C)CCN(C)C` [Compound 63, N-(5-(4-(6-fluoro-1H-indol-1-yl)-pyrimidin-2-ylamino)-2-((2-(dimethylamino)ethyl)-methyl-amino)-4-methoxyl-phenyl)-acrylamide], the GI50 in experiment [1] (setting [14]) is 100 to 1000 nM; in [2] (setting [15]) it was above 1000 nM; in experiment [3] (setting [16]), 100 to 1000 nM; in experiment [4] (setting [17]), above 1000 nM; in [5] (setting [18]), above 1000 nM; in [6] (setting [19]), 100 to 1000 nM. Further, the GI50 in [7] (setting [20]) was 10 to 100 nM; in experiment [8] (setting [21]) it was below 10 nM; in experiment [9] (setting [22]), below 10 nM; in experiment [10], 10 to 100 nM; in experiment [11] (setting [23]), 10 to 100 nM.
As to `C=CC(=O)Nc1cc(Nc2nccc(-n3cnc4ccccc43)n2)c(OC)cc1N(C)CCN(C)C` [Compound 106], the GI50 in experiment [12] (H292, EGFR wt, read-out: GI50) was above 1000 nM; in experiment [1] (setting [14]), 10 to 100 nM; in experiment [1] (SK-BR-3, EGFR wt, Her2 amp, read-out: GI50), 101 nM; in [2] (setting [15]), above 1000 nM; in [2] (H1299, EGFR wt, Nras Q61K, read-out: GI50), above 1000 nM; in experiment [3] (A431, EGFR wt, read-out: GI50), 498 nM. For the same molecule, the GI50 was 100 to 1000 nM in [3] (setting [16]); above 1000 nM in experiment [4] (setting [17]); above 1000 nM in [4] (H460, EGFR wt, Kras G61H, read-out: GI50); above 1000 nM in experiment [5] (setting [18]); above 1000 nM in experiment [5] (A549, EGFR wt, Kras G12S, read-out: GI50); 10 to 100 nM in experiment [6] (setting [19]). In addition, the GI50 in experiment [6] (AU565, EGFR wt, Her2 amp, read-out: GI50) is 19.5 nM; in experiment [7] (setting [20]) it was 10 to 100 nM; in experiment [7] (H1975, EGFR L858R/T790M, read-out: GI50) it was 15.2 nM; in experiment [8] (setting [21]), 10 to 100 nM; in experiment [8] (HCC827, EGFR dE746-A750, read-out: GI50) it was 12.6 nM; in experiment [9] (setting [22]), 10 to 100 nM. In addition, the GI50 is 15.6 nM in experiment [9] (PC-9, EGFR dE746-A750, read-out: GI50); 10 to 100 nM in experiment [10]; 10 to 100 nM in experiment [11] (setting [23]); 23.6 nM in experiment [11] (N87, EGFR wt, Her2 amp, read-out: GI50).
As for `C=CC(=O)Nc1cc(Nc2ncnc(Nc3cccc(Br)c3)n2)c(OC)cc1N(C)CCN(C)C` [Compound 115, N-(5-(4-(3-bromo-phenylamino)-[1,3,5]triazin-2-ylamino)-2-((2-dimethylamino-ethyl)-methyl-amino)-4-methoxyl-phenyl)-acrylamide], the GI50 was below 10 nM in experiment [1] (setting [14]); above 1000 nM in experiment [2] (setting [15]); 100 to 1000 nM in experiment [3] (setting [16]); above 1000 nM in experiment [4] (setting [17]); above 1000 nM in [5] (setting [18]); 10 to 100 nM in experiment [6] (setting [19]). Moreover, the GI50 is 10 to 100 nM in experiment [7] (setting [20]); below 10 nM in [8] (setting [21]); below 10 nM in experiment [9] (setting [22]); below 10 nM in [10]; below 10 nM in experiment [11] (setting [23]).
As to `C=CC(=O)Nc1cc(Nc2cc(-c3cn(C(C)C)c4ccc(F)cc34)ncn2)c(OC)cc1N(C)CCN(C)C` [Compound 191, N-(5-(6-(5-fluoro-1-isopropyl-1H-indol-3-yl)-pyrimidin-4-ylamino)-4-methoxyl-2-((2-dimethylamino-ethyl)-methyl-amino)-phenyl)-acrylamide], the GI50 is below 10 nM in [1] (setting [14]); above 1000 nM in experiment [2] (setting [15]); 100 to 1000 nM in experiment [3] (setting [16]); above 1000 nM in experiment [4] (setting [17]); above 1000 nM in experiment [5] (setting [18]); 10 to 100 nM in experiment [6] (setting [19]). Moreover, the GI50 in [7] (setting [20]), in [8] (setting [21]), in [9] (setting [22]), in experiment [10] and in [11] (setting [23]) was below 10 nM each time.
Turning to `C=CC(=O)Nc1cc(Nc2nccc(-n3ccc4c(OCCOC)cccc43)n2)c(OC)cc1N(C)CCN(C)C` [Compound 205, N-(5-(4-(4-(2-methoxyl-ethoxyl)-1H-indol-1-yl)-pyrimidin-2-ylamino)-2-(2-(dimethylamino-ethyl)-methyl-amino)-4-methoxyl-phenyl)-acrylamide], the GI50 in experiment [12] (setting [24]) was above 1000 nM; in experiment [5] (setting [25]), above 1000 nM; in experiment [5] (setting [26]) it was above 1000 nM; in experiment [13], 7.88 nM; in [7] (setting [27]), below 10 nM; in [7] (setting [28]) it was 4.9 nM. Moreover, the GI50 was below 10 nM in [9] (setting [29]), 7.81 nM in experiment [9] (setting [30]), below 10 nM in [11] (setting [31]) and 5.61 nM in experiment [11] (setting [32]).
Turning to `C=CC(=O)Nc1cc(Nc2cc(Nc3ccc(OCC4CCOCC4)c(Cl)c3)ncn2)c(OC)cc1N(C)CCN(C)C` [Compound 216, N-(5-(6-(3-chloro-4-(tetrahydropyran-4-yl-methoxyl)-phenylamino)-pyrimidin-4-ylamino)-2-((2-dimethylaminoethyl)-methyl-amino)-4-methoxyphenyl)-acrylamide], the GI50 in experiment [12] (setting [24]) was above 1000 nM; in [5] (setting [25]) it was above 1000 nM; in experiment [5] (setting [26]) it was above 1000 nM; in experiment [7] (setting [27]) it was below 10 nM; in experiment [7] (setting [28]) it was 8.96 nM; in experiment [9] (setting [29]), below 10 nM. Moreover, the GI50 in experiment [9] (setting [30]) was 9.87 nM; in [11] (setting [31]) it was below 10 nM; in experiment [11] (setting [32]), 19.5 nM.

The record behind these values is patent publication US10342796B2, “Acrylanilide derivative, preparation method, and applications thereof in pharmacy” (Ancureall Pharmaceutical (Shanghai) Co., Ltd., priority 2015, dated 2019).
